From PMC7064401 (Journal of molecular microbiology and biotechnology, 2019) come the findings set out here.

The experiment deals with BexImpX (Pseudobdellovibrio exovorus, UniProt M4VA25). Put plainly: inhibition of riboflavin uptake in E. coli expressing impX, fluorescence. It is filed as cell-based. To be noted: read-out: % inhibition at 0.9 mM.

For orientation: inhibition means the change of the read-out against control, counted positive when it falls.

In the case of `NC(=O)c1cccnc1` [nicotinamide], the inhibition at 900 µM was under 5%.

As for `Cc1ncc(C[n+]2csc(CCOP(=O)(O)OP(=O)(O)O)c2C)c(N)n1` [thiamine pyrophosphate], the inhibition at 900 µM is under 5%.
